Laboratory results published in patent US6891043B2, “Inhibitors of fatty acid amide hydrolase” (The Scripps Research Institute, priority 2000, dated 2005).
“Also recorded” adds a separate entry of the source.

Key:
FAAH [1] = target: T1, FAAH (Rattus norvegicus, UniProt P97612); experiment: FAAH inhibition: breakdown of 14C-oleamide to oleic acid, solubilized liver plasma membrane extract; assay type: biochemical; conditions: for Ki: Dixon method, 14C-oleamide substrate, pH 9.0, 20-23° C., read-out: K1
T1 construct: using a solubilized liver plasma membrane extract containing FAAH; from tissue; host or cells: liver (solubilized plasma membrane extract)
T1 sequence (P97612 1-579): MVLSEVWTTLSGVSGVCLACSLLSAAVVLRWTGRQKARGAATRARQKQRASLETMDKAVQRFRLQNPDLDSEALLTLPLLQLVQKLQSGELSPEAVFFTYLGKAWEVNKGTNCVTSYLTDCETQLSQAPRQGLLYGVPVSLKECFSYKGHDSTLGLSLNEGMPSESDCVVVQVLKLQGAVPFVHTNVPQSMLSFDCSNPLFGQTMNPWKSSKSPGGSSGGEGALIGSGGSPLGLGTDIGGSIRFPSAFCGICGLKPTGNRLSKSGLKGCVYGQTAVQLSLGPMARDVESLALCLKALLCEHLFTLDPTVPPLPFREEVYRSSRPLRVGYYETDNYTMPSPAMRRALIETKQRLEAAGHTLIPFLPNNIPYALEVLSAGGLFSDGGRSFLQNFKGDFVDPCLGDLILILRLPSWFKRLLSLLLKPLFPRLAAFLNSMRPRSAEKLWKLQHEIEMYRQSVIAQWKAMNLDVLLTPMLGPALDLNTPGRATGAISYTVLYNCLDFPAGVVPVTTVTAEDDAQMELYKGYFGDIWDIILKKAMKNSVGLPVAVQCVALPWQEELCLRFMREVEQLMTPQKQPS
Procedure: K1 values were determined by the Dixon method α-intercepts of weighted linear fits of […] plots at constant substrate concentration, which were converted to K1 values using the formula K1=−xint/[1+[S]/Km]).

FAAH [2] = target: T2, FAAH (Homo sapiens, UniProt O00519); conditions: FAAH substrate preference; cited from earlier work
T2 sequence (O00519 1-579): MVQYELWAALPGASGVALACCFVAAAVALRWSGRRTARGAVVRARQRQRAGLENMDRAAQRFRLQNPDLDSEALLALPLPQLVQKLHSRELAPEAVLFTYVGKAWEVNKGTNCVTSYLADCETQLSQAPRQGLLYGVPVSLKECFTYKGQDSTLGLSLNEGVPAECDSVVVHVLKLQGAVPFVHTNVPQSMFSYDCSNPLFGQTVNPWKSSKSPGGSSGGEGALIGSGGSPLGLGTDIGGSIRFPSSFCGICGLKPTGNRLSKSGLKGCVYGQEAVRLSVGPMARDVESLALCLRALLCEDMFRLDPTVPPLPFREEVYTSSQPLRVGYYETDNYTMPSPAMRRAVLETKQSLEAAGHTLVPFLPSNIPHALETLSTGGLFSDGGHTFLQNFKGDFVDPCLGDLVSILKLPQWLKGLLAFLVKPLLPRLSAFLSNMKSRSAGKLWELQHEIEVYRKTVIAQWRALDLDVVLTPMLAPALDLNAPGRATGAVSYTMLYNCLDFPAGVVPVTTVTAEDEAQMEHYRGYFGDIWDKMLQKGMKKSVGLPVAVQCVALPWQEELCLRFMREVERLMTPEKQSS

treated animals = experiment: In vivo sleep study with 17 (wakefulness, SWS2, REM sleep); conditions: 10 mg/kg ip, first 4 h of administration, versus controls
From the text: The in vivo properties of the inhibitors detailed herein and their action on the identified oleamide and anandamide potential sites of action are presented herein. […] Accordingly, the inhibitors disclosed herein are useful as inhibitors of FAAH and related amidases, and as a therapeutic agents with applications as sleep aids or analgesics which act by preserving endogenous levels of oleamide and anandamide.

FAAH inhibitor potency / activity in words (FAAH [1])	melting point [°C]	Compound	further results
more potent than 34 and 36	–	CCCCCCCC/C=C/CCCCCCCC(=O)c1nc2ncccc2o1 [compound 33, 1-(Oxazolo[4,5-b]pyridin-2-yl)-1-oxo-9(E)-octadecene]	–
–	60 to 61	O=C(CCCCCCc1ccccc1)c1nc2ncccc2o1 [compound 54, 1-(Oxazolo[4,5-b]pyridin-2-yl)-1-oxo-7-phenylheptane]	–
–	60 to 62	CCCCCCCCCC(=O)c1nc2ncccc2o1 [compound 45, 1-(Oxazolo[4,5-b]pyridin-2-yl)-1-oxo-decane]	–
greatly diminished	–	CCCCCCCC/C=C\CCCCCCCC(=O)c1nc2cccc(C)c2o1 [compound 28, 1-(7-Methylbenzoxazol-2-yl)-1-oxo-9(Z)-octadecene]	–
–	73 to 74	CCCCCCCCCCCCCC(=O)c1nc2ncccc2o1 [compound 43, 1-(Oxazolo[4,5-b]pyridin-2-yl)-1-oxo-tetradecane]	–
–	77 to 78	CCCCCCCCCCCCCCCC(=O)c1nc2ncccc2o1 [compound 42, 1-(Oxazolo[4,5-b]pyridin-2-yl)-1-oxo-hexadecane]	–
–	103 to 105	CC(=O)c1nc2ncccc2o1 [compound 50, 1-(Oxazolo[4,5-b]pyridin-2-yl)-1-oxo-ethane]	–
–	60 to 61	CCCCCCCC(=O)c1nc2ncccc2o1 [compound 46, 1-(Oxazolo[4,5-b]pyridin-2-yl)-1-oxo-octane]	–
more potent than 37	–	CCCCCCCC/C=C\CCCCCCCC(=O)c1nc2ccccc2o1 [compound 23, 1-(2-Benzoxazolyl)-1-oxo-9(Z)-octadecene]	–
–	51 to 53	CCCCCC(=O)c1nc2ncccc2o1 [compound 48, 1-(Oxazolo[4,5-b]pyridin-2-yl)-1-oxo-hexane]	–
–	68 to 69	CCCCCCCCCCCC(=O)c1nc2ncccc2o1 [compound 44, 1-(Oxazolo[4,5-b]pyridin-2-yl)-1-oxo-dodecane]	–
–	–	CCCCCCCC/C=C\CCCCCCCC(N)=O [oleamide]	rel. rate of hydrolysis (FAAH [2]): 0.7
inactive	84 to 85	CCCCCCCCCCCCCCCCCCc1nc2ncccc2o1 [compound 61, 1-(Oxazolo[4,5-b]pyridin-2-yl)octadecane]	additional fold loss of binding affinity with removal of the alcohol (FAAH [1]; versus α-hydroxy compound): 10^2 fold; fold loss of binding affinity / potency with removal of the keto group (FAAH [1]; versus α-keto compound): 10^5 fold
more potent than 34 and 36	–	CCCCCCCC/C=C/CCCCCCCC(=O)c1cccnn1 [compound 35, 1-Oxo-1-(3-pyridazinyl)-9(E)-octadecene]	–
–	–	CCCCCCCCCCCC(O)c1nc2ncccc2o1 (stereo not shown) [compound 60, 1-Hydroxy-1-(oxazolo[4,5-b]pyridin-2-yl)dodecane]	Ki (FAAH [1]): 1200 nM; times less potent than the corresponding keto derivative (reduction to alcohol) (FAAH [1]; α-hydroxy versus α-keto): approximately 10^3 times
–	61 to 63	O=C(CCCCCc1ccccc1)c1nc2ncccc2o1 [compound 53, 1-(Oxazolo[4,5-b]pyridin-2-yl)-1-oxo-6-phenylhexane]	Ki (FAAH [1]): < 0.2 nM
–	70 to 73	O=C(CCCCCCCc1ccccc1)c1nc2ncccc2o1 [compound 55, 1-(Oxazolo[4,5-b]pyridin-2-yl)-1-oxo-8-phenyloctane]	–
more potent than 33 and 35, respectively	–	CCCCCCCC/C=C\CCCCCCCC(=O)c1cccnn1 [compound 17, 1-Oxo-1-(3-pyridazinyl)-9(Z)-octadecene]	decrease of time spent in wakefulness, of the total time (treated animals): 14%; increase of time spent in REM sleep (treated animals): 75%; increase of time spent in REM sleep, of total time (treated animals): 4%; increase of time spent in SWS2 (treated animals): 45%; increase of time spent in SWS2, of the total time (treated animals): 10%; reduction of time spent in wakefulness (treated animals): 20%
–	–	CCCCC/C=C\C/C=C\C/C=C\C/C=C\CCCC(N)=O [arachidonamide]	rel. rate of hydrolysis (FAAH [2]): 1
–	52 to 53	CCCCCCC(=O)c1nc2ncccc2o1 [compound 47, 1-(Oxazolo[4,5-b]pyridin-2-yl)-1-oxo-heptane]	–
–	35 to 37	CCCCC(=O)c1nc2ncccc2o1 [compound 49, 1-(Oxazolo[4,5-b]pyridin-2-yl)-1-oxo-pentane]	–

Compound	FAAH inhibitor potency / activity in words (FAAH [1])	melting point [°C]	further results
CCCCCCCC/C=C\CCCCCCCC(=O)c1nc2ncccc2o1 [compound 29, 1-(Oxazolo[4,5-b]pyridin-2-yl)-1-oxo-9(Z)-octadecene]	most potent inhibitor; also recorded: more potent than 33 and 35, respectively	–	–
CCCCCCCC/C=C\CCCCCCCC(=O)c1nnn(C)n1 [compound 14, 1-(2-Methyl-2H-tetrazol-5-yl)-1-oxo-9(Z)-octadecene]	matched the potency of the trifluoromethyl ketone 3	–	–
